Among the data in PubChem BioAssay (NCI) are GI50 and TGI values, retold here.

Common to all, as to assay: NCI anticancer screen, dose series, 48 h
Assay [1] concerns UO-31 renal.
Assay [2] concerns K-562 leukemia.
The test system of assay [3] is NCI-H226 lung.
Assay [4] concerns COLO 205 colon.
Assay [5] concerns NCI-H460 lung.
For assay [6], the system named is A549 NSCLC.
Assay [7] concerns HOP-62 NSCLC.
The test system of assay [8] is UACC-257 melanoma.
Assay [9] deals with RPMI-8226 leukemia.
The subject of assay [10] is MDA-MB-231 breast.

Several values for one entry are separate records, joined by “and”; a condition that tells them apart may be missing. Identical values can stand only once.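 Values below derive from 48-hour exposures of cells grown in 96-well plates, with endpoints linearly interpolated between the two concentrations bracketing the appropriate inhibition level. Abbreviation: GI50, concentration required for 50% inhibition of growth. TGI: total growth inhibition.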 Bounds are passed on as bounds.

For the compound `CCCCCCOc1ccc(/C=N/Nc2cc(C)nc3ccc(Br)cc23)cc1`, the GI50 in assay [1] is 1.53 µM; in assay [2], 1.07 µM; in assay [3], 1.6 µM; in assay [4], 1.85 µM; in [5], 1.94 µM; in assay [6], 1.78 µM. The GI50 in assay [7] is 1.47 µM; in assay [8], 1.95 µM; in [9] it was 1.86 µM; in assay [10] it was 1.62 µM. Further, the TGI in assay [1] came out at 2.89 µM; in assay [2] it was 2.96 µM; in [3], 3.16 µM; in [4] it was 3.51 µM; in assay [5] it was 3.88 µM; in [6], 3.43 µM. Moreover, the TGI worked out at 2.94 µM in assay [7], 3.65 µM in assay [8], 4.06 µM in assay [9] and 3.08 µM in assay [10].
On to `c1ccc(Oc2cnc3ccccc3n2)cc1`, for which the GI50 in assay [1] is 39.1 µM; in assay [2] it was greater than 100 µM; in assay [3] it was 28.1 µM; in [4] it was greater than 100 µM; in assay [5], greater than 100 µM; in [6] it was greater than 100 µM. The GI50 in [7], in assay [8], in [9] and in assay [10] was greater than 100 µM throughout. For the same compound, the TGI in assay [1], in [2], in [3], in [4], in assay [5] and in assay [6] was greater than 100 µM in each case. The TGI in assay [7], in assay [8], in [9] and in [10] was greater than 100 µM throughout.
As for `COC(=O)c1cccc(COc2ccc([N+](=O)[O-])cc2Cl)c1`, the TGI in assay [1], in assay [2], in [3], in assay [4], in [5] and in assay [6] was greater than 100 µM each time. Further, the TGI in assay [7], in assay [8], in assay [9] and in assay [10] was greater than 100 µM throughout.
For the compound `COc1nc(C(Cl)(Cl)Cl)c(Cl)c(OC)c1Cl`, the TGI in assay [1] was > 64.3 µM and 75.4 µM; in assay [2] it was > 63.4 µM and 94.2 µM; in [3], 71.5 µM; in assay [4] it was > 65.1 µM and 80 µM; in assay [5] it was > 57.9 µM and 61.2 µM; in [6], > 88.9 µM and 77.8 µM. Besides, the TGI in [7] is > 62.8 µM and 22.5 µM; in assay [8], > 72.9 µM and 79.7 µM; in assay [9], > 62.9 µM and 112 µM; in [10], 72.5 µM. Further, the GI50 was greater than 42.6 µM in [2]; greater than 39.4 µM in [5]; greater than 52.5 µM in assay [6]; greater than 43.2 µM in assay [7]; greater than 50.9 µM in assay [8]; greater than 41.1 µM in assay [9].
On to `COc1ccc2nc3c(cc2c1)C(=O)CC(C(F)(F)F)C3` (stereo unspecified), for which the GI50 in assay [1] is 1.36 µM; in assay [2] it was 0.406 µM; in [3], 3.28 µM; in [4], 0.958 µM; in assay [5] it was 1.87 µM; in assay [6], 2.48 µM. Moreover, the GI50 in assay [7] was 3.36 µM; in assay [8], greater than 96.2 µM; in assay [9], 13.7 µM; in assay [10], 2.34 µM. The TGI in assay [1] was greater than 100 µM; in assay [2] it was greater than 100 µM; in [3], greater than 100 µM; in [4], greater than 55.9 µM; in assay [5], greater than 100 µM; in assay [6], greater than 100 µM. Besides, the TGI in [7], in assay [8], in [9] and in [10] was greater than 100 µM throughout.
On to `CC(=O)SC(C[N+](=O)[O-])c1ccccc1` (stereo unspecified), for which the TGI worked out at 5.37 µM in assay [1]; 12.8 µM in assay [2]; 5.72 µM in [3]; 7.47 µM in assay [4]; 24.8 µM in [5]; 14 µM in assay [6]. In addition, the TGI in [7] worked out at 33 µM; in assay [8], 24.5 µM; in assay [9], 5.18 µM; in [10], 27 µM.
Regarding `Cc1nc(N(C)C)nc(-c2cccc(-c3ccn(CCN(C)C)n3)c2)c1C`, the GI50 in [1] was 9.63 µM; in [2], greater than 20 µM; in assay [3] it was greater than 20 µM; in assay [4] it was greater than 20 µM; in [5], greater than 20 µM; in assay [6] it was greater than 20 µM. Besides, the GI50 in assay [7], in assay [8], in [9] and in assay [10] was greater than 20 µM throughout. Also, the TGI in [1], in [2], in assay [3], in assay [4], in assay [5] and in [6] was greater than 20 µM each time. The TGI in assay [7], in [8], in assay [9] and in assay [10] was greater than 20 µM throughout.
In the case of `O=C(O)c1cccc(F)c1C(=O)c1ccc2ccccc2c1`, the TGI in assay [1] was greater than 100 µM; in [2], greater than 100 µM; in assay [3], greater than 100 µM; in assay [4], 6.1 µM; in assay [5] it was greater than 100 µM; in assay [6] it was greater than 100 µM. Moreover, the TGI in assay [7], in assay [8], in assay [9] and in [10] was greater than 100 µM each time.
